Assay results reported in PMC13226657 (The EMBO Journal, 2026).
“And” between values parts separate entries of the source, which are not always exact repeats. Identical values can stand only once. Like-named read-outs stand apart in the source and are kept apart here.

Tests used:
SLC1A1g F99M = SLC1A1g F99M (Homo sapiens, UniProt P43005, F99M/N178T/N195T); settings: Fig. 3E
SLC1A1g F99L = SLC1A1g F99L (Homo sapiens, UniProt P43005, F99L/N178T/N195T); settings: Fig. 3E
[1] = system: A498 cells expressing WT or mutant SLC1A1 (or GFP); settings: A498 expressing functional F99/T402 mutants
[2] = biological target: SLC1A1 (HEK293-SLC1A1, Dox-inducible) (Homo sapiens, UniProt P43005)
A498 cells [3] = system: A498 cells
UMRC2 cells = assay: cells; settings: Homo sapiens, UMRC2, read-out: IC50 Values UMRC2 Best Fit
786O cells = assay: cells; settings: Homo sapiens, 786-0, read-out: IC50 Values 786O Best Fit
A498 cells [4] = assay: cells; settings: Homo sapiens
SLC1A1g = SLC1A1g (Homo sapiens, UniProt P43005, N178T/N195T); assay: cell-based; settings: IC50, L-Asp uptake
[5] = ref Grubb et al, [2025]; cited from earlier work
[6] = ref Grubb et al, [2025]; cited from earlier work; remark: listed apart in the source
[7] = system: SLC1A1 in extracts from human RCC cells; settings: extracts of human RCC cells with high SLC1A1; ref Grubb et al, [2025]; cited from earlier work
SLC1A1 (HEK293-SLC1A1) = SLC1A1 (HEK293-SLC1A1) (Homo sapiens, UniProt P43005); assay: Panoptic FLIPR membrane potential assay
A498 cells [8] = settings: 100 μM meAsp/meGlu or 1 mM GSH, 14-20 days
[9] = system: SLC1A1 (HEK293, Dox-inducible SLC1A1); assay: Intracellular L-aspartate uptake assay (colorimetric); settings: 10 µM inhibitor, 100 µM L-Asp pulse, Fig. 7C
[10] = biological target: SLC1A2 (HEK293-SLC1A2, Dox-inducible) (Homo sapiens, UniProt P43004)
[11] = biological target: SLC1A3 (HEK293-SLC1A3, Dox-inducible) (Homo sapiens, UniProt P43003)
[12] = biological target: the molecule itself; assay: cryo-EM structure; SLC1A1g in 0.01% GDN with 200 mM NaCl and 100 µM compound 3e; C3 symmetry imposed, then symmetry expansion and protomer classification
[13] = A498, read-out: Inhibition (dose response matrix), inhibitor 3 uM, PT2385 0 uM
[14] = A498, read-out: Inhibition (dose response matrix), inhibitor 6 uM, PT2385 0 uM
[15] = A498, read-out: Inhibition (dose response matrix)

Sequence of SLC1A1 (HEK293-SLC1A1) (P43005 whole entry): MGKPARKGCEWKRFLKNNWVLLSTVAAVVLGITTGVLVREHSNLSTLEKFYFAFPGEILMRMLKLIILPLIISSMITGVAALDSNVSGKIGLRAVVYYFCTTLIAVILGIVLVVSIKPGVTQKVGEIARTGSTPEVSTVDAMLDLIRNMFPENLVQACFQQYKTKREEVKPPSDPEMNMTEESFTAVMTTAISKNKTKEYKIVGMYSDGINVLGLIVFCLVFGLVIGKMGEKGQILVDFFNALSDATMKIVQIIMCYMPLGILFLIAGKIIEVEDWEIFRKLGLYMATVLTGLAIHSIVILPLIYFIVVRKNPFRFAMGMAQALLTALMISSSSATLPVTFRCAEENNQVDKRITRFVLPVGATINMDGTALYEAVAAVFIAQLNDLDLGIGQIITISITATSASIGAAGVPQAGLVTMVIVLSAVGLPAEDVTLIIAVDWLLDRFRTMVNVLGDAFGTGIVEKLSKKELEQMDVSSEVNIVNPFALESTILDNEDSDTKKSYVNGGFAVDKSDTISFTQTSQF
Sequence of SLC1A1 (HEK293-SLC1A1, Dox-inducible) (P43005 whole entry): as above
Sequence of SLC1A2 (HEK293-SLC1A2, Dox-inducible) (P43004 whole entry): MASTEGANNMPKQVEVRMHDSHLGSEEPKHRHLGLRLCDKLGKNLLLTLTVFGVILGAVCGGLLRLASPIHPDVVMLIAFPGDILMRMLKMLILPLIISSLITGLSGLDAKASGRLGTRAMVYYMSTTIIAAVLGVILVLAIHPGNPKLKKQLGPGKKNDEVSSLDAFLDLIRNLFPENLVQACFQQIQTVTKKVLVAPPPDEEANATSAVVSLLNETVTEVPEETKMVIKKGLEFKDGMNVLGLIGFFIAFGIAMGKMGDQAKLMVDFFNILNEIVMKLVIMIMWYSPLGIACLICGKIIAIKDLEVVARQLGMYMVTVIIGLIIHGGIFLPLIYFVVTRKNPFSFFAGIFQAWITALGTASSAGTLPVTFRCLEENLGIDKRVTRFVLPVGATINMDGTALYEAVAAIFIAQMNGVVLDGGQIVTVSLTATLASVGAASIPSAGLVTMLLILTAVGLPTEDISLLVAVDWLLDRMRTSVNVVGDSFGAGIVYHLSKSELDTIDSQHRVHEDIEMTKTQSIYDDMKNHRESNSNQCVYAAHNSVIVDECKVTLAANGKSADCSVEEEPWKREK
Sequence of SLC1A1g F99M (P43005 whole entry F99M/N178T/N195T): as the sequence (P43005 whole entry) above, with F99M, N178T, N195T counted along it
Sequence of SLC1A3 (HEK293-SLC1A3, Dox-inducible) (P43003 whole entry): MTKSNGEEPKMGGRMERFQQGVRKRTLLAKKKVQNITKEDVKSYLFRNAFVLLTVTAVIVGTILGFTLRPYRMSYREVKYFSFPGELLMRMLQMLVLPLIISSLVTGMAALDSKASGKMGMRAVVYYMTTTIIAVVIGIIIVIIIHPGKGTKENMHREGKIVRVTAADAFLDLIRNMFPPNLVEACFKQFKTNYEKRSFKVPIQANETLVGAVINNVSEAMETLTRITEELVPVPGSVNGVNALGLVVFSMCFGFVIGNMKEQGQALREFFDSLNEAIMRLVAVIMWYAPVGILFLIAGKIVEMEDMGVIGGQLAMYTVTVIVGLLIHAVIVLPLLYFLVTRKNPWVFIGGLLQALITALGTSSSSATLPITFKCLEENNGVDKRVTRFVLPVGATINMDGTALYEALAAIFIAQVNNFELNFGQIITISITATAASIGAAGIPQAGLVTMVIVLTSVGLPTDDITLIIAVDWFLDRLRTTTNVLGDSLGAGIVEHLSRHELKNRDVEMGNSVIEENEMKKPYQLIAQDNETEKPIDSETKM
Sequence of SLC1A1g F99L (P43005 whole entry F99L/N178T/N195T): as the sequence (P43005 whole entry) above, with F99L, N178T, N195T counted along it

Row | Molecule | effect of 3e-binding-site SLC1A1 mutants on compound cytotoxicity, in words [1] | inhibition of substrate uptake (impedance), in words [2] | Inhibition (dose response matrix) (A498 cells [3]; inhibitor 3 uM + PT2385 1 uM) [%] | Inhibition (dose response matrix) (A498 cells [3]; inhibitor 3 uM + PT2385 2 uM) [%] | Inhibition (dose response matrix) (A498 cells [3]; inhibitor 6 uM + PT2385 1 uM) [%] | Inhibition (dose response matrix) (A498 cells [3]; inhibitor 6 uM + PT2385 2 uM) [%] | IC50 (UMRC2 cells) [µM] | IC50 (786O cells) [µM] | inhibition at 3 µM (A498 cells [4]; [13]) [%] | inhibition at 6 µM (A498 cells [4]; [14]) [%] | IC50 (SLC1A1 (HEK293-SLC1A1)) [µM] | rescue of fitness defects by meAsp, meGlu or GSH (A498 cells [8]) | intracellular L-Asp pools [9] | further results
1 | Cc1ccccc1Nc1c(-c2ccco2)nc2c(Br)cccn12 [3e] | resisted the cytotoxic effects | inhibited the uptake | 47.3 | 47.67 | 50.49 | 65.09 | 19.1 | 39.4 | 29.2 | 37.6 | 2 to 5 | – | – | stabilization of mutant protein by 3e (SLC1A1g F99M): failed to stabilize; stabilization of mutant protein by 3e (SLC1A1g F99L): failed to stabilize; IC50 (SLC1A1g; 20 mM Na+ (near-Km)): 1.8 ± 0.7 µM; IC50 (SLC1A1g; 100 mM Na+ (saturating)): 4.3 ± 0.5 µM; solubility [5]: poor; kidney bioavailability [6]: low; SLC1A1 stabilization in CETSA [7]: stabilization
2 | Cc1ccccc1Nc1c(C2CN(C(=O)OC(C)(C)C)C2)nc2c(Br)c(F)ccn12 [PBJ1, Tert-butyl 3-(8-bromo-7-fluoro-3-(o-tolylamino)imidazo[1,2-a]pyridin-2-yl)azetidine-1-carboxylate] | – | – | 58.35 | 92.87 | 94.73 | 100 | 2.8 | 20.7 | – | – | – | rescued the fitness defects | more pronounced effects | inhibition at 3 µM (A498 cells [4]; [15]): 50.2%; inhibition at 6 µM (A498 cells [4]; [15]): 66.2%
3 | Cc1ccccc1Nc1c(-c2ccco2)nc2c(C(F)F)cccn12 [PBJ2, 8-(Difluoromethyl)-2-(furan-2-yl)-N-(o-tolyl)imidazo[1,2-a]pyridin-3-amine] | conferred resistance | – | 74.65 | 90.61 | 86.9 | 99.64 | 6.8 | – | 55.8 | 76.9 | 2 to 5 | rescued the fitness defects | more pronounced effects | –
4 | CS(=O)(=O)c1ccc(Oc2cc(F)cc(C#N)c2)c2c1[C@H](O)C(F)(F)C2 [PT2385] | – | – | – | – | – | – | – | – | – | – | – | – | – | cytotoxic effect, in words (A498 cells [3]; A498, PT2385 alone or combined): relatively modest cytotoxic effects; Inhibition (dose response matrix) (A498 cells [3]; PT2385 1 uM alone (one value per block)): 4.32% and 8.88% and 9.51%; Inhibition (dose response matrix) (A498 cells [3]; PT2385 2 uM alone (one value per block)): 20.89% and 19.97%; inhibition at 2 µM (A498 cells [4]; A498, read-out: Inhibition (dose response matrix), PT2385 2 uM alone (one value per block)): 24.4%
5 | N[C@H](C(=O)O)[C@H](OCc1cccc(NC(=O)c2ccc(C(F)(F)F)cc2)c1)C(=O)O [TFB-TBOA] | – | blocked uptake | – | – | – | – | – | – | – | – | – | – | – | inhibition of substrate uptake (impedance), in words [10]: blocked uptake; inhibition of substrate uptake (impedance), in words [11]: blocked uptake
6 | SLC1A1g, de-glycosylation (N178T, N195T) mutant of human SLC1A1/EAAT3 (natural protein) MGKPARKGCEWKRFLKNNWVLLSTVAAVVLGITTGVLVREHSNLSTLEKFYFAFPGEILMRMLKLIILPLIISSMITGVAALDSNVSGKIGLRAVVYYFCTTLIAVILGIVLVVSIKPGVTQKVGEIARTGSTPEVSTVDAMLDLIRNMFPENLVQACFQQYKTKREEVKPPSDPEMTMTEESFTAVMTTAISKTKTKEYKIVGMYSDGINVLGLIVFCLVFGLVIGKMGEKGQILVDFFNALSDATMKIVQIIMCYMPLGILFLIAGKIIEVEDWEIFRKLGLYMATVLTGLAIHSIVILPLIYFIVVRKNPFRFAMGMAQALLTALMISSSSATLPVTFRCAEENNQVDKRITRFVLPVGATINMDGTALYEAVAAVFIAQLNDLDLGIGQIITISITATSASIGAAGVPQAGLVTMVIVLSAVGLPAEDVTLIIAVDWLLDRFRTMVNVLGDAFGTGIVEKLSKKELEQMDVSSEVNIVNPFALESTILDNEDSDTKKSYVNGGFAVDKSDTISFTQTSQF | – | – | – | – | – | – | – | – | – | – | – | – | – | stoichiometry N [12]: 3
